Measured values published in PMC12040169 (PLOS Biology, 2025).

Columns and labels:
[1] = in vitro; conditions: human, hela cells, % viability
[2] = test system: T1, C. trachomatis L2/434/Bu expressing GFP (CTL2-GFP); assay: microbe, parasite or virus in culture; design: C. trachomatis total inclusion area by high-content imaging, normalised to DMSO; conditions: Chlamydia trachomatis, HeLa, 28.5 h; total inclusion area; read-out: % of control remaining
T1 construct: L2/434/Bu GFP intracellular growth in HeLa cells
Method in brief: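 Read-out combines bulk fluorescence and imaging: GFP tracks chlamydial growth, resorufin tracks host cell viability. Plates were then fixed and Hoechst-stained so inclusions and nuclei could be imaged and counted per well.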

[3] = in vitro; design: Viability of infected HeLa host cells, resazurin conversion, bulk resorufin fluorescence relative to DMSO; conditions: human, hela cells; bulk resorufin, mean of 2
[4] = test system: T2, CTL2-GFP (C. trachomatis L2/434/Bu, GFP-expressing); assay: microbe, parasite or virus in culture; design: Intracellular C. trachomatis growth in HeLa cells, bulk GFP fluorescence relative to DMSO; conditions: Chlamydia trachomatis, HeLa, 28.5 h; bulk GFP, mean of 2; read-out: % of control remaining
T2 construct: L2/434/Bu, GFP-expressing
Protocol: MICs were calculated as described above.

Row | SMILES | viability at 28.5 h, 10 µM [1] | activity at 1 µM [2] | activity at 5 µM [2] | activity at 10 µM [2] | viability at 28.5 h, 1 µM [3] | viability at 28.5 h, 5 µM [3] | viability at 28.5 h, 10 µM [3] | activity at 1 µM [4] | activity at 5 µM [4] | activity at 10 µM [4]
1 | OC(COc1ccc(Br)cc1)CN1CCCN(c2nc3ccc(Cl)cc3s2)CC1 (stereo not drawn) [CBK074643] | 93.5% | 121% | 82.4% | 11.3% | 86.1% | 88.1% | 88% | 137% | 114% | 43.8%
2 | O=C(Nc1ccccc1C(=O)Nc1nnc(C(F)(F)F)s1)c1ccccc1Cl [CBK076900] | 76.9% | 113% | 64.7% | 63.4% | 94.7% | 97% | 84.6% | 130% | 90.8% | 45.1%
3 | N#CCCCN1CCC(Oc2cncc(OCc3ccc(Cl)c(Cl)c3)n2)C1 (stereo not drawn) [CBK084436] | 96.1% | 118% | 74.4% | 32.6% | 95.4% | 102% | 99.4% | 127% | 81.2% | 52.7%
4 | COc1ccc(N2CCN(C(=O)c3ccc([N+](=O)[O-])o3)CC2)cc1 [CBK091410] | 105% | 128% | 64.3% | 20.7% | 106% | 110% | 125% | 106% | 55.2% | 16%
5 | Nc1ncc(-c2ccc(C(=O)N3CCOCC3)cc2)cc1C(=O)NCc1ccc(Cl)c(Cl)c1 [CBK158570] | 109% | 87.8% | 108% | 65.8% | 91.9% | 93.3% | 93.8% | 97.9% | 89.9% | 72%
6 | CCc1nnc(NS(=O)(=O)c2ccc(NC(=O)COc3ccc(Cl)cc3Cl)cc2)s1 [CBK200050] | 108% | 99.2% | 67% | 37.8% | 104% | 96.7% | 98.4% | 112% | 48.5% | 22.1%
7 | NC(=O)c1[nH]nc(C2OC(CO)C(O)C2O)c1O (stereo not drawn) [CBK201236] | 95.1% | 23.4% | 16% | 13.6% | 92.8% | 92.1% | 93.8% | 15.5% | 10.1% | 9.69%
8 | Nc1nc(F)nc2c1ncn2[C@H]1C[C@@H](O)[C@@H](CO)O1 [CBK201337] | 77.6% | 50.4% | 4.65% | 1.29% | 93.5% | 79.2% | 72.6% | 52.9% | 11.5% | 14.4%
9 | Nc1ccc(C(=O)Nc2ccc(-c3nc4ccc(NC(=O)c5ccc(N)cc5)cc4[nH]3)cc2)cc1 [CBK261147] | 109% | 101% | 76.7% | 91.9% | 88.3% | 93.2% | 103% | 149% | 133% | 160%
